According to the kinase profiling compilation of Christmann-Franck et al. (2016):

Experiments:
Assay in all cases: KINOMEscan competition binding
Conditions in all cases: compound 10.0 µM
[1] = target: EPHB1 (human) (UniProt P54762)
[2] = target: SRC (human) (UniProt P12931)
[3] = target: MAPK9 (human) (UniProt P45984)
[4] = target: FLT1 (human) (UniProt P17948)
[5] = target: EPHB3 (human) (UniProt P54753)
[6] = target: NEK7 (human) (UniProt Q8TDX7)
[7] = target: BRSK1 (human) (UniProt Q8TDC3)
[8] = target: RPS6KA2 KD1 (human) (UniProt Q15349)
[9] = target: PRKCQ (human) (UniProt Q04759)
[10] = target: NEK9 (human) (UniProt Q8TD19)
Sequence of NEK9 (human) (Q8TD19 whole entry, looked up): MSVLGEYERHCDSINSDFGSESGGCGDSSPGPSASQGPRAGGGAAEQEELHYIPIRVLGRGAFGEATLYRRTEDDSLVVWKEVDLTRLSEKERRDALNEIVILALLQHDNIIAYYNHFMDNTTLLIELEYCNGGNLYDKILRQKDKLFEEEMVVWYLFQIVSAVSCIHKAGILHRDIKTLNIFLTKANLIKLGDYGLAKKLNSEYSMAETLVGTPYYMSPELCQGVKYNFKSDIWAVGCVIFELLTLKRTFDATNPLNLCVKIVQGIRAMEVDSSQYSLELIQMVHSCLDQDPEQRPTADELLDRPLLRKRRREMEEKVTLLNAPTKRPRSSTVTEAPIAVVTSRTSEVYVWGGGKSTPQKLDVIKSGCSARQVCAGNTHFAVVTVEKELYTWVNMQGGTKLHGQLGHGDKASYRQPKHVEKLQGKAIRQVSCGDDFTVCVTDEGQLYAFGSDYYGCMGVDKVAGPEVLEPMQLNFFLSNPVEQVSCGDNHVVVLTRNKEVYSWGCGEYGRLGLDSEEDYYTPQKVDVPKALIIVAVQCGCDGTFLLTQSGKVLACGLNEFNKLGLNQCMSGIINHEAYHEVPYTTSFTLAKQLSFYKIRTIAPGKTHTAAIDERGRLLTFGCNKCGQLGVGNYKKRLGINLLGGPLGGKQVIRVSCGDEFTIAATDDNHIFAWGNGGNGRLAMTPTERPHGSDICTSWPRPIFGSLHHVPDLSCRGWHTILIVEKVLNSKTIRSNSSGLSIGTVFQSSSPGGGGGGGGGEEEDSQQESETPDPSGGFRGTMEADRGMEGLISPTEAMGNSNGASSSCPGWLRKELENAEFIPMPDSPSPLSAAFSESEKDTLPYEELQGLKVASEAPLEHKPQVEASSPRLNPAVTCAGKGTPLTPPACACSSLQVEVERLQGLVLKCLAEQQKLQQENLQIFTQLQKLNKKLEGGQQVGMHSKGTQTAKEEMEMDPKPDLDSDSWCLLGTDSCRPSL

[11] = target: RIOK2 (human) (UniProt Q9BVS4)
Sequence of RIOK2 (human) (Q9BVS4 whole entry, looked up): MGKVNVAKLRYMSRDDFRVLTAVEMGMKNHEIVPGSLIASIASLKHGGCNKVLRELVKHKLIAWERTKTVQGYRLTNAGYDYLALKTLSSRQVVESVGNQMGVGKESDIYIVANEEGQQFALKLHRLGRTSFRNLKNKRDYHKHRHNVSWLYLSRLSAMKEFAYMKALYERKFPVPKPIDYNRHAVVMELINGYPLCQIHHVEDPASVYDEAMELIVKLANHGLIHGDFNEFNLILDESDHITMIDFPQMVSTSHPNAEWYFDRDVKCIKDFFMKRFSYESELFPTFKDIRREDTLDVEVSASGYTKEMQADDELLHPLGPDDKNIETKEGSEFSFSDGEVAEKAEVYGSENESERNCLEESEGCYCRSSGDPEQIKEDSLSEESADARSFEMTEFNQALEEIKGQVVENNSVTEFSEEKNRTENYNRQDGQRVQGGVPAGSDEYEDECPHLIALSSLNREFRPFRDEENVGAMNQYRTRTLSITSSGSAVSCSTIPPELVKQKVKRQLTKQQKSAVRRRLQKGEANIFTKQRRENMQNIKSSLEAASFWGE

[12] = target: ULK3 (human) (UniProt Q6PHR2)
[13] = target: CLK1 (human) (UniProt P49759)
Sequence of CLK1 (human) (P49759 whole entry, looked up): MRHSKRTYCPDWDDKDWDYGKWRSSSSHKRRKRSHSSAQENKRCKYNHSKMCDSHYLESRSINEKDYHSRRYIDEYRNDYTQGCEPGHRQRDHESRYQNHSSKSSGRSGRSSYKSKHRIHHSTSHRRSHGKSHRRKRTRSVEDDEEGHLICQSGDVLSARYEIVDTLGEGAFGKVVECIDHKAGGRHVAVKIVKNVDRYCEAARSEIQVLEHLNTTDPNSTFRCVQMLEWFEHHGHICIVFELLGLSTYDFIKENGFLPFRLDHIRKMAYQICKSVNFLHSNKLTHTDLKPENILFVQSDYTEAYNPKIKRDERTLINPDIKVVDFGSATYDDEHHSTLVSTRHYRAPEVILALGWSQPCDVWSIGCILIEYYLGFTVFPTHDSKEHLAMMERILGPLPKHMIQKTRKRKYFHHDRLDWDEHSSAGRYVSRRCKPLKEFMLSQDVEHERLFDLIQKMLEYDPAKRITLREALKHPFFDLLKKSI

[14] = target: SRMS (human) (UniProt Q9H3Y6)
[15] = target: MAPK3 (human) (UniProt P27361)
[16] = target: CDK15 (human) (UniProt Q96Q40)
Sequence of CDK15 (human) (Q96Q40 whole entry, looked up): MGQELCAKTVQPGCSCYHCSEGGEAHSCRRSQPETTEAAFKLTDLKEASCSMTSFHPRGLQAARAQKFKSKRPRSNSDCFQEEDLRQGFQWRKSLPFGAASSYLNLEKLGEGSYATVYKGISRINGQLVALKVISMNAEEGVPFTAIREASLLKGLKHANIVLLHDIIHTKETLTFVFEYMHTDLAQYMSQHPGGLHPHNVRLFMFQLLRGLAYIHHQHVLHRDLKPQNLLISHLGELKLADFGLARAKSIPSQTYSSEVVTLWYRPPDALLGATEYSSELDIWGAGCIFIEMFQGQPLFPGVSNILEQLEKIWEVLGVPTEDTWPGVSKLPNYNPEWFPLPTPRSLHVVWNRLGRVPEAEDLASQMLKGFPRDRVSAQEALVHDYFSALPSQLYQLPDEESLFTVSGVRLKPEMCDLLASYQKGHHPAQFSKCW

[17] = target: BRSK2 (human) (UniProt Q8IWQ3)
[18] = target: TEC (human) (UniProt P42680)
[19] = target: MELK (human) (UniProt Q14680)
Sequence of MELK (human) (Q14680 whole entry, looked up): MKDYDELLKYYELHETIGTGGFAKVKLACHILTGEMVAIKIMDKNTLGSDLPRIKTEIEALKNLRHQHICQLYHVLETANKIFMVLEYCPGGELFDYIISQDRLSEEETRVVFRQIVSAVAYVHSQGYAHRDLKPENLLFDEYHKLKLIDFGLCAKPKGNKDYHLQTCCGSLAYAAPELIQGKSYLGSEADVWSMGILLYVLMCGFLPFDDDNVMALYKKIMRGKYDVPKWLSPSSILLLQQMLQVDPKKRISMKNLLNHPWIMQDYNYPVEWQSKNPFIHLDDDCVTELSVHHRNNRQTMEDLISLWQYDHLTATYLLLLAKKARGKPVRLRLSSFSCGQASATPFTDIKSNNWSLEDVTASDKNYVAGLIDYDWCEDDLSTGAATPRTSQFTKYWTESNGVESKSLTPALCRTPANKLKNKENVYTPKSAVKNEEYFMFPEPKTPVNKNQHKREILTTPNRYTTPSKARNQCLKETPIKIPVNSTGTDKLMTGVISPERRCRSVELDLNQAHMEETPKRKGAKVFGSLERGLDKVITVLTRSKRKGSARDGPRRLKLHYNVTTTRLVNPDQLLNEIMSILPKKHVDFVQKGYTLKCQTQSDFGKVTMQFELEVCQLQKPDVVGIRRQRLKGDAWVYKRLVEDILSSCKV

[20] = target: STK25 (human) (UniProt O00506)
Sequence of STK25 (human) (O00506 whole entry, looked up): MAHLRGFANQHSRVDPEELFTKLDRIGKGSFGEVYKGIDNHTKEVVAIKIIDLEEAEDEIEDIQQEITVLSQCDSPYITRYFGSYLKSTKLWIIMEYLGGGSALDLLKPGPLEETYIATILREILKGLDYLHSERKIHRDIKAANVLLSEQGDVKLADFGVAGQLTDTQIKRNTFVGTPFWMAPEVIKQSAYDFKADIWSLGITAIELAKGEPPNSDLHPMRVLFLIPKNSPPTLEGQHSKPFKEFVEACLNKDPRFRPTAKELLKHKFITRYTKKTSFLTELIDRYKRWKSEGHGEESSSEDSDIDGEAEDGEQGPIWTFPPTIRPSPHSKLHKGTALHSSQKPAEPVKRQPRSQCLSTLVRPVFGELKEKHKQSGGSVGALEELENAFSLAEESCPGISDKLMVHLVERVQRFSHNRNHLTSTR

[21] = target: EPHA2 (human) (UniProt P29317)
[22] = target: RIPK1 (human) (UniProt Q13546)
[23] = target: BMPR1B (human) (UniProt O00238)
[24] = target: CSNK1G2 (human) (UniProt P78368)
[25] = target: ULK1 (human) (UniProt O75385)
[26] = target: BLK (human) (UniProt P51451)
[27] = target: CDC42BPB (human) (UniProt Q9Y5S2)
[28] = target: WEE1 (human) (UniProt P30291)
[29] = target: DCLK2 (human) (UniProt Q8N568)
[30] = target: ITK (human) (UniProt Q08881)
[31] = target: RIOK1 (human) (UniProt Q9BRS2)
[32] = target: SLK (human) (UniProt Q9H2G2)
[33] = target: EPHA7 (human) (UniProt Q15375)
Sequence of EPHA7 (human) (Q15375 whole entry, looked up): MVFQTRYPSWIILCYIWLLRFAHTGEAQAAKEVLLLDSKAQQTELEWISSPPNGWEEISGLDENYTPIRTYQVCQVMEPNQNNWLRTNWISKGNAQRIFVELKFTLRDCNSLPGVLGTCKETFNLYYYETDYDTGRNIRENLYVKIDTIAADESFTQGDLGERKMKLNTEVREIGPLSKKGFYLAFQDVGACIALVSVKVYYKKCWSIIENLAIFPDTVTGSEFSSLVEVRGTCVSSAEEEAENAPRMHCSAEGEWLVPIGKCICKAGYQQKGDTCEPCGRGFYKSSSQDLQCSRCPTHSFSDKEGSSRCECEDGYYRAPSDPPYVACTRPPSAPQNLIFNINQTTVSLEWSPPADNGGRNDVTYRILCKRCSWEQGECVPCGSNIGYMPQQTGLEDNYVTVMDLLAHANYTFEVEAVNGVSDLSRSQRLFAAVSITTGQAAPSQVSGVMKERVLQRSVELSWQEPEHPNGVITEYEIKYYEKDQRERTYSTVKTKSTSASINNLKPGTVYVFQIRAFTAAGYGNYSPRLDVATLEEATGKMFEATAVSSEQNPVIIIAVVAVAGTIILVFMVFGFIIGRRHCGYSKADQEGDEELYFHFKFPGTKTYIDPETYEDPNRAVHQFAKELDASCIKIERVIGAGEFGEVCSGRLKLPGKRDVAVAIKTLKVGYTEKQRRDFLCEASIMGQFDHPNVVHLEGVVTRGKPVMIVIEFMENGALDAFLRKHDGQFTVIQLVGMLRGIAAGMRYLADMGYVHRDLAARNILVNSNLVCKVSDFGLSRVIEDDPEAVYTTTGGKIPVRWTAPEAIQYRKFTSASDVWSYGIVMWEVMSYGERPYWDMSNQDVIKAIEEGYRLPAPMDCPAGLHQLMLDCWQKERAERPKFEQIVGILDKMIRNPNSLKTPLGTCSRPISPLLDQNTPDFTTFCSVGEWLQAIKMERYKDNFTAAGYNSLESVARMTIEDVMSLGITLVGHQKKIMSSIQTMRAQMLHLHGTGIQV

[34] = target: MAPK6 (human) (UniProt Q16659)
[35] = target: CAMK1D (human) (UniProt Q8IU85)
Sequence of CAMK1D (human) (Q8IU85 whole entry, looked up): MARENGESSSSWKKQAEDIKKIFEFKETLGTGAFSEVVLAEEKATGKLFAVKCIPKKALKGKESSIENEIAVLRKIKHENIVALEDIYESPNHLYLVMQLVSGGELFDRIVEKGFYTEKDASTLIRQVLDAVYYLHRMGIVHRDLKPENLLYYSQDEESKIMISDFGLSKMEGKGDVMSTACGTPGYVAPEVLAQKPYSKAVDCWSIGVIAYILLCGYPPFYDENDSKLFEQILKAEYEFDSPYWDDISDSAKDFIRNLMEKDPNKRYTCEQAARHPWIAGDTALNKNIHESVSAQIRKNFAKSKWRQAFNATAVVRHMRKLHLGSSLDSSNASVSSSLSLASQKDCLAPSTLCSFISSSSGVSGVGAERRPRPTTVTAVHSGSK

[36] = target: ZAP70 (human) (UniProt P43403)
[37] = target: PHKG1 (human) (UniProt Q16816)
[38] = target: STK33 (human) (UniProt Q9BYT3)
[39] = target: PRKAA1 (human) (UniProt Q13131)
[40] = target: CSNK2A1 (human) (UniProt P68400)

Row | Structure (SMILES) | kinase still bound, per cent of control [1] [%] | kinase still bound, per cent of control [2] [%] | kinase still bound, per cent of control [3] [%] | kinase still bound, per cent of control [4] [%] | kinase still bound, per cent of control [5] [%] | kinase still bound, per cent of control [6] [%] | kinase still bound, per cent of control [7] [%] | kinase still bound, per cent of control [8] [%] | kinase still bound, per cent of control [9] [%] | kinase still bound, per cent of control [10] [%] | kinase still bound, per cent of control [11] [%] | kinase still bound, per cent of control [12] [%] | kinase still bound, per cent of control [13] [%] | kinase still bound, per cent of control [14] [%] | kinase still bound, per cent of control [15] [%] | kinase still bound, per cent of control [16] [%] | kinase still bound, per cent of control [17] [%] | kinase still bound, per cent of control [18] [%] | kinase still bound, per cent of control [19] [%] | kinase still bound, per cent of control [20] [%] | other results
1 | C=CC(=O)Nc1cccc(Nc2nc(N[C@H]3CC[C@H](N(C)C)CC3)nc3c2ncn3C(C)C)c1 | 84 | 4 | 100 | 100 | 83 | 76 | 88 | 4.4 | 3.6 | 100 | 66 | 52 | 1 | 88 | 100 | 100 | 100 | 100 | 25 | 89 | kinase still bound, per cent of control [21]: 60%; kinase still bound, per cent of control [22]: 100%; kinase still bound, per cent of control [23]: 31%; kinase still bound, per cent of control [24]: 7.9%; kinase still bound, per cent of control [25]: 0.7%; kinase still bound, per cent of control [26]: 17%; kinase still bound, per cent of control [27]: 76%; kinase still bound, per cent of control [28]: 51%; kinase still bound, per cent of control [29]: 89%; kinase still bound, per cent of control [30]: 65%; kinase still bound, per cent of control [31]: 31%; kinase still bound, per cent of control [32]: 26%; kinase still bound, per cent of control [33]: 100%; kinase still bound, per cent of control [34]: 100%; kinase still bound, per cent of control [35]: 67%; kinase still bound, per cent of control [36]: 77%; kinase still bound, per cent of control [37]: 57%; kinase still bound, per cent of control [38]: 15%; kinase still bound, per cent of control [39]: 78%; kinase still bound, per cent of control [40]: 54%
2 | C=CC(=O)Nc1cccc(Oc2nc(Nc3ccc(N4CCN(C)CC4)cc3OC)ncc2Cl)c1 | 100 | 100 | 100 | 100 | 100 | 12 | 100 | 16 | 100 | 100 | 12 | 12 | 13 | 100 | 100 | 100 | 100 | 6.6 | 14 | 100 | kinase still bound, per cent of control [21]: 100%; kinase still bound, per cent of control [22]: 9.4%; kinase still bound, per cent of control [23]: 100%; kinase still bound, per cent of control [24]: 100%; kinase still bound, per cent of control [25]: 1.6%; kinase still bound, per cent of control [26]: 0.75%; kinase still bound, per cent of control [27]: 100%; kinase still bound, per cent of control [28]: 100%; kinase still bound, per cent of control [29]: 0.45%; kinase still bound, per cent of control [30]: 0.55%; kinase still bound, per cent of control [31]: 17%; kinase still bound, per cent of control [32]: 100%; kinase still bound, per cent of control [33]: 100%; kinase still bound, per cent of control [34]: 100%; kinase still bound, per cent of control [35]: 27%; kinase still bound, per cent of control [36]: 100%; kinase still bound, per cent of control [37]: 7.7%; kinase still bound, per cent of control [38]: 1.3%; kinase still bound, per cent of control [39]: 28%; kinase still bound, per cent of control [40]: 100%
3 | Cc1ccc(C(=O)Nc2cccc(C(F)(F)F)c2)cc1Nc1cncc(C(N)=O)c1 | 1.8 | 100 | 100 | 33 | 3.3 | 100 | 100 | 100 | 100 | 100 | 100 | 100 | 100 | 100 | 100 | 100 | 100 | 100 | 100 | 100 | kinase still bound, per cent of control [21]: 2.2%; kinase still bound, per cent of control [22]: 100%; kinase still bound, per cent of control [23]: 100%; kinase still bound, per cent of control [24]: 100%; kinase still bound, per cent of control [25]: 100%; kinase still bound, per cent of control [26]: 100%; kinase still bound, per cent of control [27]: 100%; kinase still bound, per cent of control [28]: 100%; kinase still bound, per cent of control [29]: 100%; kinase still bound, per cent of control [30]: 100%; kinase still bound, per cent of control [31]: 100%; kinase still bound, per cent of control [32]: 100%; kinase still bound, per cent of control [33]: 100%; kinase still bound, per cent of control [34]: 100%; kinase still bound, per cent of control [35]: 100%; kinase still bound, per cent of control [36]: 100%; kinase still bound, per cent of control [37]: 100%; kinase still bound, per cent of control [38]: 100%; kinase still bound, per cent of control [39]: 100%; kinase still bound, per cent of control [40]: 100%
